Series [1] in a line: Ratio of drug uptake in brain to plasma of fasted Sprague-Dawley rat at 1 mg/kg, iv after 6 to 24 hrs by LC-MS/MS analysis. The class given is ADME, organism-based. Also noted: dose 1 mg/kg, route intravenous. Conditions: read-out: BPR.
Series [2] concerns the target T1, Histamine H3 receptor (Rattus norvegicus, UniProt Q9QYN8). The experiment in a line: Displacement of [3H]NAMH from rat histamine H3 receptor expressed in CHO cells. The class given is cell-based.
Series [3] can be described thus: Oral bioavailability in fasted Sprague-Dawley rat at 5 mg/kg after 6 hrs by LC-MS/MS analysis. It is filed as ADME, organism-based. Conditions: in vivo.
Series [4] is described as follows: Systemic clearance in fasted Sprague-Dawley rat at 1 mg/kg, iv after 6 to 24 hrs by LC-MS/MS analysis. It is filed as ADME, organism-based. Also on record: dose 1 mg/kg, route intravenous. Conditions: in vivo.
A short description of series [5]: Terminal half life in fasted Sprague-Dawley rat at 1 mg/kg, iv after 6 to 24 hrs by LC-MS/MS analysis. The class given is ADME, organism-based. Also on record: dose 1 mg/kg, route intravenous. The note with it: in vivo, read-out: beta t1/2 (converted).
For series [6], the target named is T2, Histamine H3 receptor (Homo sapiens, UniProt Q9Y5N1). The experiment in a line: Displacement of [3H]NAMH from human histamine H3 receptor expressed in CHO cells. The class given is cell-based.
T2 sequence (Q9Y5N1 whole entry): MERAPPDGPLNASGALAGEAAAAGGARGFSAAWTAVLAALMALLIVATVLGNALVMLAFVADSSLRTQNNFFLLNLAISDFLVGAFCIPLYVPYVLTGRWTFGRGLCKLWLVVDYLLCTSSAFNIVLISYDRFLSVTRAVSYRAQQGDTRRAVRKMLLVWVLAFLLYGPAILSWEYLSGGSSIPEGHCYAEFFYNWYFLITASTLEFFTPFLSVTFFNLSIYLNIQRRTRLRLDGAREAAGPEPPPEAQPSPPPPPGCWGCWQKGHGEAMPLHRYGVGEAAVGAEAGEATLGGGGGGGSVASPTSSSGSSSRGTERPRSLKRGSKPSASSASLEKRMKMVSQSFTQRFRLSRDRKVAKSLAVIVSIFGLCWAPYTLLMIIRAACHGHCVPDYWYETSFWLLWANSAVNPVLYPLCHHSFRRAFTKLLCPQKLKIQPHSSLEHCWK
Series [7] in a line: Dissociation constant, pKa of the compound. It is filed as physicochemical.
For series [8], the target named is Voltage-gated inwardly rectifying potassium channel KCNH2 (Homo sapiens, UniProt Q12809). Description: Inhibition of recombinant human ERG channel expressed in human HEK 293 cells by patch clamp assay. It is filed as cell-based, HEK293. On the technique in general: Patch clamp records ionic current or voltage across a cell membrane.
Chain of Voltage-gated inwardly rectifying potassium channel KCNH2 (Q12809 whole entry): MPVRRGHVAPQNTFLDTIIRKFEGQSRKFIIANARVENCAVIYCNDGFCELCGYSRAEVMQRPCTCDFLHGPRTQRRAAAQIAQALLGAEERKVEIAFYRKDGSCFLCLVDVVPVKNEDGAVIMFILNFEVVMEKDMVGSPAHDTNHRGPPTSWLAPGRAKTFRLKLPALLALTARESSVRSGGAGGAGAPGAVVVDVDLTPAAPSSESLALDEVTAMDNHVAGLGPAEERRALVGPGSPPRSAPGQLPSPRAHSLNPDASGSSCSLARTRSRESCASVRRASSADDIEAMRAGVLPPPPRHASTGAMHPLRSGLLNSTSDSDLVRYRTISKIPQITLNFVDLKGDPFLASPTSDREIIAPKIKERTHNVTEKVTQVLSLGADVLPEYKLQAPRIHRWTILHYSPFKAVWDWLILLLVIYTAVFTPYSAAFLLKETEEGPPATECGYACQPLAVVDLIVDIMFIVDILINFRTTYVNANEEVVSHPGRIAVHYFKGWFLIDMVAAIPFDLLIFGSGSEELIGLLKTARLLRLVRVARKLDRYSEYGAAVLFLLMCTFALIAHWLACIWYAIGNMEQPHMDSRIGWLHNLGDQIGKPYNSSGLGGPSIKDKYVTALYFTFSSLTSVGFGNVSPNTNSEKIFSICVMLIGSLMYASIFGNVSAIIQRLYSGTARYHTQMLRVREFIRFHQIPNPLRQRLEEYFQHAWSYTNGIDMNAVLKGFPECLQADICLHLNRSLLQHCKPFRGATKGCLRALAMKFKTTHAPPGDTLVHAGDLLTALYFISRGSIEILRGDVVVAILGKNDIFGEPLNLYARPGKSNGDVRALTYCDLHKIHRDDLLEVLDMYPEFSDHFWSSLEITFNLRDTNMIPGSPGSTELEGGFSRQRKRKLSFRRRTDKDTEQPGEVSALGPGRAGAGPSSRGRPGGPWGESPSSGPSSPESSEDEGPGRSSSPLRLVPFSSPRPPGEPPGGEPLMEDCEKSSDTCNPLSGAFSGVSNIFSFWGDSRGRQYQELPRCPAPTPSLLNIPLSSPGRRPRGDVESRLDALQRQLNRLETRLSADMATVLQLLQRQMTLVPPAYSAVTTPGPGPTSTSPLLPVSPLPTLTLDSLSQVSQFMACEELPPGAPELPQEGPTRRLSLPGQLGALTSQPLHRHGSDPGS
Series [9] has as its target T2, Histamine H3 receptor. Description: Inverse agonist activity at human histamine H3 receptor assessed as inhibition of R-alpha-methylhistamine induced [35S]GTPgammaS binding. The class given is functional.
The target in series [10] is T2, Histamine H3 receptor. Description: Antagonist activity against human histamine H3 receptor assessed as inhibition of R-alpha-methylhistamine induced [35S]GTPgammaS binding. It is filed as functional. (Binding of GTPγS marks nucleotide exchange on a G protein.)
Series [11] in a line: Oral bioavailability in fasted Sprague-Dawley rat at 10 mg/kg after 24 hrs by LC-MS/MS analysis. It is filed as ADME, organism-based. The note with it: in vivo.
Series [12] has as its target T1, Histamine H3 receptor. The experiment in a line: Inverse agonist activity at rat histamine H3 receptor assessed as inhibition of R-alpha-methylhistamine induced [35S]GTPgammaS binding. It is filed as functional.
Another series has as its system Rattus norvegicus. The experiment in a line: Inhibition of RAMH-induced dipsogenia in Long Evans rat administered as po 15 mins prior to RAMH challenge. The class given is functional.
Series [13] can be described thus: Bioavailability in fasted Sprague-Dawley rat at 1 mg/kg, iv after 6 to 24 hrs by LC-MS/MS analysis. It is filed as ADME, organism-based. Conditions: in vivo.
A short description of series [14]: Distribution coefficient log D of the compound at pH 7.4. The class given is physicochemical. Conditions: octanol/water.
In series [15] the target is Histamine H1 receptor (Homo sapiens) (UniProt P35367). The experiment in a line: Inhibition of human histamine H1 receptor at 10 uM.
Chain of Histamine H1 receptor (Homo sapiens) (P35367 whole entry): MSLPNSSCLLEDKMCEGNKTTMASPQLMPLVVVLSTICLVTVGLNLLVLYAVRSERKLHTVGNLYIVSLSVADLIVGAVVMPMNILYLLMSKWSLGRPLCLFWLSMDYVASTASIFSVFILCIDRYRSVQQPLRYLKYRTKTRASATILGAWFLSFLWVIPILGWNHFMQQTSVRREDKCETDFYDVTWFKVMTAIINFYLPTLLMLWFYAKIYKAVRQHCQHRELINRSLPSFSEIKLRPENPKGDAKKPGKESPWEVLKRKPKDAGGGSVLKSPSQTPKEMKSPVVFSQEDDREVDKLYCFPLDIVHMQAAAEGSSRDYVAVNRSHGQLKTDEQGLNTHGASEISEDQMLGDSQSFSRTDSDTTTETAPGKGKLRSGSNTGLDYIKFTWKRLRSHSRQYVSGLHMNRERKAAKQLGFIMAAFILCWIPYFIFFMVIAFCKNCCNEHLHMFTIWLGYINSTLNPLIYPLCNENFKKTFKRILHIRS
The target of series [16] is Histamine H2 receptor (Homo sapiens) (UniProt P25021). The experiment in a line: Inhibition of human histamine H2 receptor at 10 uM.
Chain of Histamine H2 receptor (Homo sapiens) (P25021 whole entry): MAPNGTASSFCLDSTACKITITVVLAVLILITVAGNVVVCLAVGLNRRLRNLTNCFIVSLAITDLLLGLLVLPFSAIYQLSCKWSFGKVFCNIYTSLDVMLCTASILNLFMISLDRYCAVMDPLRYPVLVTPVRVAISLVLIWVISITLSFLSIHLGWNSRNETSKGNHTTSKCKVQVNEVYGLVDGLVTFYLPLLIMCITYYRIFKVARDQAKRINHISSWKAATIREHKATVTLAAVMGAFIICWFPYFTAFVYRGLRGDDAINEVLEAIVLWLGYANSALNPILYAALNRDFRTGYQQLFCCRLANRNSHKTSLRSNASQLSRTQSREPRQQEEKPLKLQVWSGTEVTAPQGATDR
Series [17] concerns the target Histamine H4 receptor (Homo sapiens) (UniProt Q9H3N8). Description: Inhibition of human histamine H4 receptor at 10 uM.

The structures appear in SMILES notation.

T1 sequence (Q9QYN8 whole entry): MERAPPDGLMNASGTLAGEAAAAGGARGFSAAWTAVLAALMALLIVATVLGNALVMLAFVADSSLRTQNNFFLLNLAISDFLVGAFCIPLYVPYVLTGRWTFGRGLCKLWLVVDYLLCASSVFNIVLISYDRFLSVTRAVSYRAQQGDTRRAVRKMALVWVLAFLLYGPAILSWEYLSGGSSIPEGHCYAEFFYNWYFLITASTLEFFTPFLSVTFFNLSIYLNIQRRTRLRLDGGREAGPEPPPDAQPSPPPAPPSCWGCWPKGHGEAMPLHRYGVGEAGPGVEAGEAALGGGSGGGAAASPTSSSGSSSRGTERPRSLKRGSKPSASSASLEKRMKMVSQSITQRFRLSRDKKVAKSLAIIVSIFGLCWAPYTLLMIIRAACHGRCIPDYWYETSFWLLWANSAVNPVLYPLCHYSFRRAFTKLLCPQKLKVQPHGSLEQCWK
Chain of Histamine H4 receptor (Homo sapiens) (Q9H3N8 whole entry): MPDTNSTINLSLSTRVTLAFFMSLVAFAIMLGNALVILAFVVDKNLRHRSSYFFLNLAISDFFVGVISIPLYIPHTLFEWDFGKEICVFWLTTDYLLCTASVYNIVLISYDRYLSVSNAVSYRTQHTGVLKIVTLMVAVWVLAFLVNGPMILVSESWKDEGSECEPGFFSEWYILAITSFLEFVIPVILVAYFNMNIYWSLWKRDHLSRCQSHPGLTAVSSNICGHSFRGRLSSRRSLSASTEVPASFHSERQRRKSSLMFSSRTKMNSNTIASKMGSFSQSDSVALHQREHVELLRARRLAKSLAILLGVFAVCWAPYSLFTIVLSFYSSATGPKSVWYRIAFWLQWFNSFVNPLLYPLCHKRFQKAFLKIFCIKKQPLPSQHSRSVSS

`C[C@@H]1CCCN1CCCOc1ccc(-c2ccc(=O)n(-c3ccccc3)n2)cc1`: the Kp in [1] was determined as 6.2. The inhibition constant (Ki) (as a rule, the dissociation constant of the complex between target and ligand, obtained from inhibition or displacement) was 7.9 nM at Histamine H3 receptor [2] and 2.5 nM at Histamine H3 receptor [6]. The bioavailability – broadly, dose-corrected exposure relative to a reference, in per cent – in series [3] was determined as 10%. The clearance (in general, a measure of how efficiently the substance is removed, as volume per time) in series [4] came out at 11.7 mL/min/kg. In addition, the half-life in series [5] is 126 min.
With `O=c1ccc(-c2ccc(OCCCN3CCOCC3)cc2)n[nH]1`, the figures for the Ki on Histamine H3 receptor [2] and on Histamine H3 receptor [6] were 822 nM and 767 nM, respectively. Moreover, the pKa (usually the negative logarithm of the acid dissociation constant) in [7] worked out at 7.1.
On to `Cn1nc(-c2ccc(OCCCN3CCC[C@H]3CO)cc2)ccc1=O`, for which, in series [1], the Kp was found to be 1.4. Affinity on Histamine H3 receptor [2] was put at a Ki of 48 nM. Further, the bioavailability in [3] was determined as 43%. The molecule further yielded a clearance in series [4] of 90 mL/min/kg. Also, the half-life in series [5] was 60 min.
In the case of `C[C@H]1CCCN1CCCOc1ccc(-c2ccc(=O)[nH]n2)cc1`, the Kp in [1] was determined as 3.1. Moreover, the Ki at Histamine H3 receptor [2] turned out to be 50 nM; on Histamine H3 receptor [6], 16 nM. Also, the bioavailability in [3] is 25%. Further, the clearance in [4] is 14.5 mL/min/kg. In addition, the half-life in series [5] is 96 min.
In the case of `C[C@@H]1CCCN1CCCOc1ccc(-c2ccc(=O)n(Cc3ccccc3)n2)cc1`, the Kp in [1] stood at 3.8. The Ki at Histamine H3 receptor [2] was 12 nM; on Histamine H3 receptor [6] it was 6.9 nM. This molecule also showed a bioavailability in series [3] below 1%. The same molecule returned a clearance in series [4] of 46 mL/min/kg. The half-life in [5] was 42 min.
Consider `O=c1ccc(-c2ccc(OCCCN3CCCC3)cc2)n[nH]1`, for which the Ki came to 45 nM on Histamine H3 receptor [2] and 16 nM at Histamine H3 receptor [6].
Molecule `Cn1nc(-c2ccc(OCCCN3CCC[C@@H]3CO)cc2)ccc1=O` returned a Ki on Histamine H3 receptor [2] of 427 nM.
In the case of `CC(C)n1nc(-c2ccc(OCCCN3CCC[C@H]3C)cc2)ccc1=O`, the Kp in series [1] is 2.1. The Ki at Histamine H3 receptor [2] turned out to be 7.6 nM; on Histamine H3 receptor [6], 4.8 nM. The same molecule had a bioavailability in series [3] of 5%. In [4], this molecule registered a clearance of 258 mL/min/kg. The half-life in series [5] is 18 min.
Turning to `Cn1nc(-c2ccc(OCCCN3CCCCC3)cc2)ccc1=O`, in [1], the Kp amounted to 5.3. Further, the Ki at Histamine H3 receptor [2] came out at 106 nM; on Histamine H3 receptor [6], 21 nM. In series [3], this molecule gave a bioavailability of 22%. In series [4], the clearance was 50 mL/min/kg. Besides, the half-life in [5] is 72 min.
For `C[C@@H]1CCCN1CCCOc1ccc(-c2cn[nH]c(=O)c2)cc1`, the IC50 (commonly the point on the concentration scale where inhibition reaches its midpoint) in [8] amounted to 9.5 µM. The Kp in series [1] was 1.8. For the same molecule, the values for the 50% effective concentration (EC50) on Histamine H3 receptor [9] and on Histamine H3 receptor [12] were 1.1 nM and 2.1 nM, respectively. At Histamine H3 receptor [10], the Kb (in general, the affinity of an antagonist, worked out from how it opposes an agonist) was determined as 0.4 nM. The molecule also displayed a bioavailability in series [11] of 24%. Further, the Ki was determined as 8.5 nM on Histamine H3 receptor [2] and 2.8 nM on Histamine H3 receptor [6]. Also, the clearance in series [4] came out at 9.6 mL/min/kg. For the same molecule, the half-life in [5] was 60 min. Moreover, the 50% effect level in the series with Rattus norvegicus (ED50) was put at a dose of 0.03 mg/kg.
`C[C@@H]1CCCN1CCc1cc2cc(-c3ccc(C#N)cc3)ccc2o1`: the Kp in series [1] is 32. In series [13], this molecule returned a bioavailability above 18%. Further, the clearance in series [4] stood at 39 mL/min/kg. Moreover, in series [5], the half-life was 90 min.
`C[C@@H]1CCCN1CCCOc1ccc(-n2ncccc2=O)cc1`: the values for the Ki at Histamine H3 receptor [2] and at Histamine H3 receptor [6] were 347 nM and 82 nM, respectively.
With `C[C@@H]1CCCN1CCCOc1ccc(-c2ccc(=O)n(C)n2)cc1`, the IC50 in series [8] was 13 µM. Further, the Kp in series [1] amounted to 3.5. Moreover, the logD (as a rule, the decadic logarithm of the distribution of all forms, ionised or not, between an organic phase and buffer at a given pH) in series [14] stood at 0.8. Also, the results for the concentration giving a half-maximal response (EC50) at Histamine H3 receptor [9] and at Histamine H3 receptor [12] were 1 nM and 2.2 nM, respectively. In addition, on Histamine H3 receptor [10], the antagonist equilibrium constant (Kb) came to 0.5 nM. In series [11], this molecule registered a bioavailability of 39%. For the same molecule, the Ki is 6.3 nM on Histamine H3 receptor [2] and 1.4 nM at Histamine H3 receptor [6]. Further, the clearance in series [4] amounted to 45 mL/min/kg. The half-life in series [5] was 96 min. In addition, in the series on Rattus norvegicus, the ED50 (usually the midpoint of the dose-response relation) was 0.14 mg/kg.
Consider `O=c1ccc(-c2ccc(OCCCN3CCCCC3)cc2)n[nH]1`, for which, in series [1], the Kp amounted to 1.9. Moreover, the figures for the Ki on Histamine H3 receptor [2] and at Histamine H3 receptor [6] were 37 nM and 8.7 nM, respectively. In series [3], the bioavailability is 11%. For the same molecule, the clearance in series [4] came out at 4.9 mL/min/kg. In series [5], the half-life is 54 min.
`C[C@@H]1CCCN1CCCOc1ccc(-c2ccc(=O)[nH]n2)cc1`: the inhibition in series [15], in [16] and in series [17] was below 11% in each case. For the same molecule, at Histamine H3 receptor [10], the Kb came out at 0.4 nM.
Take `CCn1nc(-c2ccc(OCCCN3CCC[C@H]3C)cc2)ccc1=O`: the Kp in series [1] stood at 1.5. In addition, the Ki on Histamine H3 receptor [2] came to 11 nM; on Histamine H3 receptor [6], 3.9 nM. This molecule also had a bioavailability in series [3] of 18%. This molecule also returned a clearance in series [4] of 238 mL/min/kg. In series [5], the half-life is 24 min.

The values above are taken from ChEMBL document CHEMBL1811886 (J Med Chem, 2011).
